The target of experiment [1] is T1, serotonin-induced constriction of caudal artery (Rattus norvegicus, UniProt P14842).
T1 construct: Caudal artery was removed and spiral strip was prepared; from tissue; host or cells: Wistar rat (male) caudal artery, spiral strip
In words: Inhibition test against serotonin-induced constriction of caudal artery in rats. Format: cell-based. The note with it: Wistar rat caudal artery spiral strip, from shift of serotonin ED50; read-out: Ki (inhibition constant against serotonin-induced constriction). As for the experimental part: (2) Inhibition Test against Serotonin-induced Constriction of Caudal Artery in Rats Wistar strain male rats (300-500 g) were sacrificed by striking the animals at the occiput. Caudal artery was removed and spiral strip was prepared according to the procedure of J. M. van Nueten, The Journal of Pharmacology and Experimental Therapeutics 218(1): 217-230 (1981).
The spirit strip was ligated at both ends with cotton thread and placed in a magunus tube containing 10 ml of Krebs-Henselite solution (37° C., bubbled with a mixture of 95% O2 and 5% CO2). One end of the thread was connected to Isometric Transducer (Nihon Koden-kogyo Kikai). Isometric contraction was measured using Isometric Amplifier (Nihon Koden-kogyo Kikai) under a tension of 0.5 g.
The control contruction by cumulatively added serotonin(final concentration: 10^-9 --10^-5 M) was measured and then the control ED50 value of serotonin was determined. Subsequently, the strip was washed three times with Krebs-Henselite solution and a compound of the invention was added at a suitable concentration (final concentration: 10^-8, 10^-7, 10^-6, or 10^-5 M). Two minutes later, serotonin was cumulatively added at concentrations from 10^-9 to 10^-5 or 10^-3 M, and the ED50 value in the test group was determined.
ED50 values were calculated by "Probit Analysis". In Probit Analysis, an intercept, slope and spontaneous (threshold) reaction ratio of the curve obtained by biological analysis can be calculated according to the following "Probit equation" with highest reliability: [formula] .PHI.: the cumulative distributing relationships of standard normal distribution. […]
x: average dose (concentration of serotonin) y: probability of reaction (contractility rate of vascular smooth muscle) a, b, c: parameter; a, b>0, 1>c>0.
Inhibition constant (Ki) for each compound was determined according to the following equation: [formula]

Experiment [2] concerns the target T2, serotonin receptor (3H-Ketanserin binding, cerebral cortex nucleus-microsome-containing fraction) (Rattus norvegicus, UniProt P14842).
T2 construct: the resultant nucleus-microsome-containing fraction (=receptor) was stored at -80° C; from tissue; host or cells: Wistar rat (male) cerebral cortex, nucleus-microsome-containing fraction
In words: Receptor-binding test (3H-Ketanserin tracer, rat cerebral cortex receptor fraction). The note with it: 3H-Ketanserin 1 nM, Wistar rat cerebral cortex receptor, 37° C. 30 min; read-out: IC50 (50% inhibition of specific binding of the tracer to the receptor). As for the experimental part:
(1) Receptor-binding Test
(a) Preparation of Receptor
Wistar strain male rats (300-500 g) were killed by decapitation. Cerebral cortex was removed, homogenized in 50 mM Tris-HCl buffer, pH 7.4, and centrifuged at 50,000×g for 20 min at 4° C. After washing precipitates with the same buffer, the resultant nucleus-microsome-containing fraction (=receptor) was stored at -80° C. until use.
The receptor obtained above (0.5 ml, equivalent to 5 mg of tissue) was incubated at 37° C. for 30 min in 0.4 ml of the above-mentioned buffer containing 0.1 ml of ^3 H-Ketanserin tracer (77 Ci/mmol; a final concentration of 1 nM) in the final volume of 1.0 ml. The reaction mixture was filtered under vacuum through a GF/B glass filter (Whatman). After washing the filter with the buffer, radio activity bound to filter was measured by a liquid scintilation spectrophotometer (Aloka, LSC-900) to obtain the total binding activity of the tracer.
Non-specific binding activity of the tracer, i.e., the binding activity of the tracer to materials other than the receptor, was evaluated using the same assay system except for that serotonin was added to the reaction mixture to the final concentration of 1 mM in order to block the binding of the tracer to the receptor. The specific binding activity of the tracer to the receptor was determined by subtracting the non-specific binding activity from the total binding activity.
(c) IC50 (concentration of a test compound requisite for producing a 50% inhibition)
Concentration (ng/ml) of compounds of the invention (serotonin antagonist) which produces a 50% inhibition of specific binding of the tracer to the receptor was determined as follows.
The assay system and procedure as described in (b) were employed except for that amitriphtyline hydrochloride as a control or a compound of the invention was added to the assay system with various concentrations of from 10^-1 to 10^-5 ng/ml. The specific binding activity was determined at each concentration, and a dose-response curve was prepared. A concentration of the compound in ng/ml required for producing 50% inhibition of specific binding of the tracer to the receptor (IC50) was determined on the basis of the dose-response curve.

The term Ki denotes a dissociation constant, usually derived from enzyme kinetics or from competition with a known ligand. The term IC50 denotes the midpoint of a concentration-inhibition curve.

T1 sequence (P14842 whole entry): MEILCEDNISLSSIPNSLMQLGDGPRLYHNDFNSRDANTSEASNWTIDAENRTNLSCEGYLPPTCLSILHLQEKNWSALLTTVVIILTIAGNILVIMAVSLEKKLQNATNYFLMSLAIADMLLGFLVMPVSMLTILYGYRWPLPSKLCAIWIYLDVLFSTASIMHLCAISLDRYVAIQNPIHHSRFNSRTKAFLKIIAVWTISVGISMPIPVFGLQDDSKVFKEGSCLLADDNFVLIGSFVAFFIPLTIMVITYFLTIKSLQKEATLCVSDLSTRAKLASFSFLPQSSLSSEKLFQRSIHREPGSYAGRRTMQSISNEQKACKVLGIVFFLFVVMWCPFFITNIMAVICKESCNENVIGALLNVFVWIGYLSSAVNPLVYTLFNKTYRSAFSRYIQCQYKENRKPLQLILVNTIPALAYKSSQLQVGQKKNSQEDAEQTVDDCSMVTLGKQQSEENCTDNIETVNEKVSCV
T2 sequence (P14842 whole entry): as above

As for `CN(C)CC(COc1ccccc1CCc1cccc(F)c1)OC(=O)CCC(=O)O` (stereo not drawn) [compound 17], the inhibition constant Ki in experiment [1] was 41.3 nM.

`COc1cccc(CCc2ccccc2OCC(CN(C)C)OC(=O)CCC(=O)O)c1` (stereo not drawn) [compound 14]: in experiment [1], the Ki is 17.8 nM.

As for `CNCCCCOc1ccccc1CCc1ccccc1` [compound 6], the IC50 in experiment [2] worked out at 156 nM. Moreover, the Ki in experiment [1] is 70.6 nM.

`CN(C)CCOc1ccccc1CCc1ccccc1` [Compound No. 1]: the 50% inhibitory concentration (IC50) in experiment [2] is 96.2 nM. Moreover, in experiment [1], the Ki stood at 6.33 nM.

As for `c1ccc(CCc2ccccc2OCCCCN2CCCCC2)cc1` [compound 8], the Ki in experiment [1] is 67.6 nM.

For `CN(C)CCCCOc1cccc(CCc2ccccc2)c1` [compound 10], the Ki in experiment [1] was determined as 517 nM.

For `COc1cccc(CCc2ccccc2)c1OCCCCN(C)C` [compound 21], the Ki in experiment [1] stood at 85.7 nM.

Regarding `COc1cccc(CCc2ccccc2OCC(CN(C)C)OCCC(=O)O)c1` (stereo not drawn) [compound 16], the inhibition constant (Ki) in experiment [1] was determined as 1.05 nM.

As for `CN(C)CCCCOc1ccc(CCc2ccccc2)cc1` [compound 11], the inhibition constant (Ki) in experiment [1] stood at 416 nM.

For the compound `O=C(O)C1CCN(CCCCOc2ccccc2CCc2ccccc2)CC1` [compound 9], the Ki in experiment [1] stood at 198 nM.

As for `CN(C)CCCCOc1ccccc1CCc1ccccc1` [compound 3], the IC50 in experiment [2] came to 115 nM. For the same compound, in experiment [1], the Ki amounted to 9.78 nM.

Regarding `CN(C)CCCCOc1ccc(Cl)cc1CCc1ccccc1` [compound 20], the Ki in experiment [1] worked out at 25.7 nM.

As for `CN(C)CCCOc1ccccc1CCc1ccc(N(C)C)cc1` [compound 13], in experiment [1], the Ki turned out to be 23.3 nM.

For `CN(C)CCCOc1ccccc1CCc1ccccc1` [Compound No. 2], the IC50 in experiment [2] came out at 33.8 nM. Further, the Ki in experiment [1] was found to be 4.55 nM.

For the compound `CN(C)CCCCCCOc1ccccc1CCc1ccccc1` [compound 5], the IC50 in experiment [2] was determined as 152 nM. The inhibitory constant (Ki) in experiment [1] was 74.9 nM.

Turning to `CN(C)CCCCOc1ccccc1CCc1cccc(Cl)c1` [compound 19], in experiment [1], the Ki was determined as 13.5 nM.

As to `COc1cccc(CCc2ccccc2OCCCCN(C)C)c1` [compound 12], in experiment [1], the Ki was 13.1 nM.

Consider `NCCCCOc1ccccc1CCc1ccccc1` [compound 7], for which, in experiment [1], the Ki is 280 nM.

On to `CN(C)CCCCCOc1ccccc1CCc1ccccc1` [compound 4], for which the IC50 in experiment [2] was determined as 377 nM. Moreover, the Ki in experiment [1] turned out to be 37.6 nM.

As for `COc1cccc(CCc2ccccc2OCC(O)CN(C)C)c1` (stereo not drawn) [compound 15], in experiment [1], the Ki was found to be 1.16 nM.

On to `CN(C)CC(O)COc1ccccc1CCc1ccccc1` (stereo not drawn) [compound 18], for which the Ki in experiment [1] amounted to 13.9 nM.

Source of the values: patent publication US5032614A, “Serotonin antagonist” (Mitsubishi Kasei Corporation, priority 1989, dated 1991).
